1 molecule from PMC7416039 (Pharmacology Research & Perspectives, 2020) can be followed below.

This assay concerns the target T1, human aldehyde dehydrogenase 2 (ALDH2) (Homo sapiens, UniProt P05091).
T1 sequence (P05091 18-517): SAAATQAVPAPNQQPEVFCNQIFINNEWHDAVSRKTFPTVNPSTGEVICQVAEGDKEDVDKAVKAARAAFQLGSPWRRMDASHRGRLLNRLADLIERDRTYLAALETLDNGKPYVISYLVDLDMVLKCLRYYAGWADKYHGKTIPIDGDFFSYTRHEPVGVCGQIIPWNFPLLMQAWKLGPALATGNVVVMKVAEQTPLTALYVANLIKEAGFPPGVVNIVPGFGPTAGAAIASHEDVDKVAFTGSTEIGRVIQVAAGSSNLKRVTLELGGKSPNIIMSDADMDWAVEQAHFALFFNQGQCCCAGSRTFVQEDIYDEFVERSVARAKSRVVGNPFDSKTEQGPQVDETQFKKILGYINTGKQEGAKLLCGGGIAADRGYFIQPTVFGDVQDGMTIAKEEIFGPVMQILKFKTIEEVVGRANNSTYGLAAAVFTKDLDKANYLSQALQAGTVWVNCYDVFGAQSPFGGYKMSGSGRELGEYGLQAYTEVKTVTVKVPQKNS
The experiment in a line: Reversible inhibition of ALDH2. The assay is classed as biochemical.

Regarding `O=c1c(-c2ccc(O)cc2)coc2cc(O[C@@H]3O[C@H](CO)[C@@H](O)[C@H](O)[C@H]3O)ccc12` [Daidzin], the “% Remaining” value (Daidzin 0.02 μmol/L) worked out at 106%; the “% Remaining” value (Daidzin 0.05 μmol/L) is reported as 102%; the “% Remaining” value (Daidzin 0.14 μmol/L) is 93%; the “% Remaining” value (Daidzin 0.41 μmol/L) is reported as 96%; the “% Remaining” value (Daidzin 1.2 μmol/L) stood at 76%; the “% Remaining” value (Daidzin 3.7 μmol/L) amounted to 57%. In addition, the “% Remaining” value (Daidzin 11 μmol/L) is on record as 27%, the “% Remaining” value (Daidzin 33 μmol/L) is given as 16% and the “% Remaining” value (Daidzin 100 μmol/L) is 7%. Besides, the NADH runs as follows: (Daidzin 0.02 μmol/L) 132 nmol/min/mg; (Daidzin 0.05 μmol/L) 127 nmol/min/mg; (Daidzin 0.14 μmol/L) 117 nmol/min/mg; (Daidzin 0.41 μmol/L) 120 nmol/min/mg; (Daidzin 1.2 μmol/L) 95 nmol/min/mg; (Daidzin 3.7 μmol/L) 72 nmol/min/mg. In addition, the NADH by setting is: (Daidzin 11 μmol/L) 33 nmol/min/mg; (Daidzin 33 μmol/L) 20 nmol/min/mg; (Daidzin 100 μmol/L) 8 nmol/min/mg.
